The record followed here is ChEMBL document CHEMBL1221256, “A mutant selective anti-estrogen is a pure antagonist on EREs and AP-1 response elements” (Bioorg Med Chem Lett, 2010).

The structures appear in SMILES notation. Active and inactive are the calls of the source. The calls are words filed in the database; no cut-off is given here.

As a reminder, the IC50 is the concentration that gives 50% inhibition. The low end stands for greater potency in that assay, the high end for weaker potency in that assay. A word on the EC50: it is the concentration at which the effect is half-maximal. The low end stands for a more potent agent, the high end for a less potent agent.

Test [1] relates to Estrogen receptor beta (Homo sapiens), Q92731 [E305A]. As to the kind of experiment: Antagonist activity at human ERbeta E305A mutant expressed in human HeLa cells co-expressing AP-1 assessed as inhibition of transactivation activity at up to 10 uM by luciferase reporter gene assay. In kind it is functional, cell-based.
For test [2], the target named is Estrogen receptor beta (Homo sapiens, UniProt Q92731, E305A).
The target of test [3] is T1, Estrogen receptor beta (Homo sapiens, UniProt Q92731).
Test [4] has as its target Estrogen receptor (Homo sapiens, UniProt P03372, E353A).
For test [5], the target named is T1, Estrogen receptor beta. The source holds these as a separate data set.
Description: Antagonist activity at human wild type ERbeta expressed in human HeLa cells co-expressing AP-1 assessed as inhibition of transactivation activity by luciferase reporter gene assay
Test [6] deals with T2, Estrogen receptor (Homo sapiens, UniProt P03372).
T2 sequence (P03372 whole entry): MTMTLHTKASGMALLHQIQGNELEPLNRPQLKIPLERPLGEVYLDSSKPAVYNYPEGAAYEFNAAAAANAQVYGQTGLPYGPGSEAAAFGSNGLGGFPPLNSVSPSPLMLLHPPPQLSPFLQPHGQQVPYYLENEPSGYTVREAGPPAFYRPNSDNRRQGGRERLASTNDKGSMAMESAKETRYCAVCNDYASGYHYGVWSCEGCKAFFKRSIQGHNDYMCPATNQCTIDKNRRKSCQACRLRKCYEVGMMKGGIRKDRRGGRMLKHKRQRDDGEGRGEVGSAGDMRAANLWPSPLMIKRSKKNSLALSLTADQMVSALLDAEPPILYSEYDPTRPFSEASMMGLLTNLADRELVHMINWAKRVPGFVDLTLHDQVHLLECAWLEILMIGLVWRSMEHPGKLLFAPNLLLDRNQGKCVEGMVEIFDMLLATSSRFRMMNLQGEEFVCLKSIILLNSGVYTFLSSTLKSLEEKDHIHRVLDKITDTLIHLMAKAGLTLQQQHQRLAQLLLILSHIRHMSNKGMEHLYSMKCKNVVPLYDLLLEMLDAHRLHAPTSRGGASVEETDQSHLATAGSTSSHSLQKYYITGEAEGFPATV

The target of test [7] is T1, Estrogen receptor beta. The source holds these as a separate data set.
Test [8] addresses T3, Estrogen receptor (Homo sapiens) (UniProt P03372).
T3 sequence (whole entry): T2 sequence (P03372 whole entry)
As to the kind of experiment: Agonist activity at human wild type ERalpha expressed in human HeLa cells co-expressing AP-1 assessed as transactivation activity by luciferase reporter gene assay. In kind it is functional, cell-based. A general note: Reporter assays use an easily measured gene product as a stand-in for the process of interest.

T1 sequence (Q92731 whole entry): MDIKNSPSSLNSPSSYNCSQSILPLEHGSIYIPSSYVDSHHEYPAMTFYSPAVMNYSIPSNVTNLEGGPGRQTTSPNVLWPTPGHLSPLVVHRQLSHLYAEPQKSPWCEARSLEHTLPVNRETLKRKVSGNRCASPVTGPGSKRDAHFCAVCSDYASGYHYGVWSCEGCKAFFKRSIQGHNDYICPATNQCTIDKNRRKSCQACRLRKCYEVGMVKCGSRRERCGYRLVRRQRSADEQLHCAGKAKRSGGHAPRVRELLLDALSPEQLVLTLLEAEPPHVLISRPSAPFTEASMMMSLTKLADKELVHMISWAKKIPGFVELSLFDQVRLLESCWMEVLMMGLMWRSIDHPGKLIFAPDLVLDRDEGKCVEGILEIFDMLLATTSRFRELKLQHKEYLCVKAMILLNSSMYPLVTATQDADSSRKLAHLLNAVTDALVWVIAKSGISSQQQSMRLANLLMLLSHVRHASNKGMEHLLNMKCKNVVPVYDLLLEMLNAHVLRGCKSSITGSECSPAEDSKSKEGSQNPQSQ
Chain of Estrogen receptor beta (Homo sapiens, UniProt Q92731, E305A) (Q92731 whole entry E305A): as the sequence (Q92731 whole entry) above, with E305A counted along it
Chain of Estrogen receptor beta (Homo sapiens), Q92731 [E305A] (Q92731 whole entry E305A): as the sequence (Q92731 whole entry) above, with E305A counted along it
Chain of Estrogen receptor (Homo sapiens, UniProt P03372, E353A) (P03372 whole entry E353A): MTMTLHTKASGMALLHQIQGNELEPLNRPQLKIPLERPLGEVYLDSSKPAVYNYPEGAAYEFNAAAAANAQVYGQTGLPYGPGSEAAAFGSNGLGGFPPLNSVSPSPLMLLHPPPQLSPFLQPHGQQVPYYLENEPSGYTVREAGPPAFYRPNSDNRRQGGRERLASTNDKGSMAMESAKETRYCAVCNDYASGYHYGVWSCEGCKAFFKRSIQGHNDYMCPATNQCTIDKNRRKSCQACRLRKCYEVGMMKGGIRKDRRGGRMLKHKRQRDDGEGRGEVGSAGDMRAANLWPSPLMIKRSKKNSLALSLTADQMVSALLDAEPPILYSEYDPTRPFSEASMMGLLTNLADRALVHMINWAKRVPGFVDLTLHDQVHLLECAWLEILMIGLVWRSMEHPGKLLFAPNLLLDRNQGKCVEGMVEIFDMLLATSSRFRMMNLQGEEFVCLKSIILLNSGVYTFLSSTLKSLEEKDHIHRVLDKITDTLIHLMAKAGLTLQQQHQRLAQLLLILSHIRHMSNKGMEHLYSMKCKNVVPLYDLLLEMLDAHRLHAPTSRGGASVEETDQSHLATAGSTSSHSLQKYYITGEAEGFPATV

As to `O=C(O)/C=C/c1ccc2c(C(=O)c3ccc(OCCN4CCCCC4)cc3)c(-c3ccc(O)cc3)sc2c1`, the outcome in test [1] was inactive. Moreover, the IC50 against Estrogen receptor beta [2] is above 10000 nM; against Estrogen receptor beta [3], above 10000 nM; on Estrogen receptor [4], 212 nM; at Estrogen receptor [6] it was 82 nM; against Estrogen receptor beta [7] it was 104 nM. On Estrogen receptor beta [5], this compound yielded an EC50 of 150 nM.

`CCCCN(C)C(=O)CCCCCCCCCC[C@@H]1Cc2cc(O)ccc2[C@H]2CC[C@]3(C)[C@@H](O)CC[C@H]3[C@H]12`: the outcome in test [8] was Active.
